Molecules are shown by their SMILES. Structures can show the parent of a compound that is named as a salt.

The target in this test is T1, human Cav2.2 α (α1B) subunit, along with the human β3 and α2δ1 auxiliary subunits (Homo sapiens, UniProt Q00975).
T1 construct: expressed in transfected cells
T1 sequence (Q00975 whole entry): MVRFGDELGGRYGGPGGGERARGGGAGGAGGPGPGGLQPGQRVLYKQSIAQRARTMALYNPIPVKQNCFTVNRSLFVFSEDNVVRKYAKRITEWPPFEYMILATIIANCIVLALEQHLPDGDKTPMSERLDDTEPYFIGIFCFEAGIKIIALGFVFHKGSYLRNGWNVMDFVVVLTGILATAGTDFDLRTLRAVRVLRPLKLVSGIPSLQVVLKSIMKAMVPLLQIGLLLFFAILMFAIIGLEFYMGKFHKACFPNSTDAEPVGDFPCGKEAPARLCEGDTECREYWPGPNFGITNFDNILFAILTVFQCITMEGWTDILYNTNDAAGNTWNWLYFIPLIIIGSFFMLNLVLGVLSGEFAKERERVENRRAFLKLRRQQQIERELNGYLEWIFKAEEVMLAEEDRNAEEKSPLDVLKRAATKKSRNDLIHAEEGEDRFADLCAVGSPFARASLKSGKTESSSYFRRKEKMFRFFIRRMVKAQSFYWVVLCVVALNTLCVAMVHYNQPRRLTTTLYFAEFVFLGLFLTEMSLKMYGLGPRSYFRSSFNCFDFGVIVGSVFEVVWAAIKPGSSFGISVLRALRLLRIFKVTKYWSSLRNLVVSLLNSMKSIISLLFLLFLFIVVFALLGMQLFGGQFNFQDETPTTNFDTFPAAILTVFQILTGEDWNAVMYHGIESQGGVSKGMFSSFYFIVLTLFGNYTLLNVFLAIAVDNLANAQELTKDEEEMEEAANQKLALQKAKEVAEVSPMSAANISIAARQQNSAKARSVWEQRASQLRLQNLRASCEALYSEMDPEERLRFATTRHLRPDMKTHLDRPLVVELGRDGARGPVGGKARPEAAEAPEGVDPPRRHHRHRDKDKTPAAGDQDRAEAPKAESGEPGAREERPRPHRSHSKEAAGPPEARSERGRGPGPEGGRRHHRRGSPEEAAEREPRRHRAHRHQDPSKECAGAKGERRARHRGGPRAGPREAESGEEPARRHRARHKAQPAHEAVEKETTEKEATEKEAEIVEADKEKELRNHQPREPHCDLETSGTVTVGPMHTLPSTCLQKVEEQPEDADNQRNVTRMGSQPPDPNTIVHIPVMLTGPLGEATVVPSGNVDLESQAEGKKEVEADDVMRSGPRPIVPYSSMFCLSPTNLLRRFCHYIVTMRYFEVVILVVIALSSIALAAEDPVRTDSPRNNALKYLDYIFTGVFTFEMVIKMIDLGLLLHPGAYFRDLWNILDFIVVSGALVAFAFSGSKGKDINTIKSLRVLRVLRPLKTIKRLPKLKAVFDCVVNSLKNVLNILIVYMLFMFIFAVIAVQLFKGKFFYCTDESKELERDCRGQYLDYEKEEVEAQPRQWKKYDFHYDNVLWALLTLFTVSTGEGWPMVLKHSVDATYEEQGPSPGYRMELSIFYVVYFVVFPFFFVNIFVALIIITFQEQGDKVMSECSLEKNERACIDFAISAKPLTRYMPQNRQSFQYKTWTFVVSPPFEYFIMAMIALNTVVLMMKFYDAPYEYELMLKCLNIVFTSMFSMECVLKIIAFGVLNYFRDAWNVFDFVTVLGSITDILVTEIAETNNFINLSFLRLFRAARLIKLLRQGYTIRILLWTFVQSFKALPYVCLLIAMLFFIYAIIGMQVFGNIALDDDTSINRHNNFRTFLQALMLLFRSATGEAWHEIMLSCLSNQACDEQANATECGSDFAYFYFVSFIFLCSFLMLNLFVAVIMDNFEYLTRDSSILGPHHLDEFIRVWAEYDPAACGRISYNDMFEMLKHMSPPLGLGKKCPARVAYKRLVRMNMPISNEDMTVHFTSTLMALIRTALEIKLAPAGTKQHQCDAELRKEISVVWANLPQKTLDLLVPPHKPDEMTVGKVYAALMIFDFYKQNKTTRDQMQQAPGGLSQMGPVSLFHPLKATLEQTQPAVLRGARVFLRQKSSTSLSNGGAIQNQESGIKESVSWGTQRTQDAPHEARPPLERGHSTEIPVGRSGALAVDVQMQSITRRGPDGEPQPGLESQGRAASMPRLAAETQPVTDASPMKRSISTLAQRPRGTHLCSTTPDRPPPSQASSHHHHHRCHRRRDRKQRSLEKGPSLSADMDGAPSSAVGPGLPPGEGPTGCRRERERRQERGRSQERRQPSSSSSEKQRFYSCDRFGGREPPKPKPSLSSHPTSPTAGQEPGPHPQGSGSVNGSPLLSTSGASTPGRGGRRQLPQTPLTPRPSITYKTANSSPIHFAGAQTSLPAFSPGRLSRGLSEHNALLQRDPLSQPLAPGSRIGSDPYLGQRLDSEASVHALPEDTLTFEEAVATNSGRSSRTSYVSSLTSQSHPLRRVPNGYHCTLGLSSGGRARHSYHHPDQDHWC
T1 sequence (P54284 whole entry partner): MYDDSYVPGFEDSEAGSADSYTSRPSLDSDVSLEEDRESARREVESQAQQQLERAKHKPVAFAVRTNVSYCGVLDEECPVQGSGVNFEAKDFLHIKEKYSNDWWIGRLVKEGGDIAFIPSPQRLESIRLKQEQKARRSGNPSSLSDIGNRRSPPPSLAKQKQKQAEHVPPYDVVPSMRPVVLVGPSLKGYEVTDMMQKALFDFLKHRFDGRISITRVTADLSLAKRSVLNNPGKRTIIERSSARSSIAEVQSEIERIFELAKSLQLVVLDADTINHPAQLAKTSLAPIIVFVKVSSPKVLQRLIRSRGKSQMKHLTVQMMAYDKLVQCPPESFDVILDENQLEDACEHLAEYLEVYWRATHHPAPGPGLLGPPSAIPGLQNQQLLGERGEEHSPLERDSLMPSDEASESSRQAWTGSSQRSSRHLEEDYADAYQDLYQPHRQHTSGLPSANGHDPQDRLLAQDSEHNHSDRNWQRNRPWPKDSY
T1 sequence (P54289 25-946 partner limits assumed): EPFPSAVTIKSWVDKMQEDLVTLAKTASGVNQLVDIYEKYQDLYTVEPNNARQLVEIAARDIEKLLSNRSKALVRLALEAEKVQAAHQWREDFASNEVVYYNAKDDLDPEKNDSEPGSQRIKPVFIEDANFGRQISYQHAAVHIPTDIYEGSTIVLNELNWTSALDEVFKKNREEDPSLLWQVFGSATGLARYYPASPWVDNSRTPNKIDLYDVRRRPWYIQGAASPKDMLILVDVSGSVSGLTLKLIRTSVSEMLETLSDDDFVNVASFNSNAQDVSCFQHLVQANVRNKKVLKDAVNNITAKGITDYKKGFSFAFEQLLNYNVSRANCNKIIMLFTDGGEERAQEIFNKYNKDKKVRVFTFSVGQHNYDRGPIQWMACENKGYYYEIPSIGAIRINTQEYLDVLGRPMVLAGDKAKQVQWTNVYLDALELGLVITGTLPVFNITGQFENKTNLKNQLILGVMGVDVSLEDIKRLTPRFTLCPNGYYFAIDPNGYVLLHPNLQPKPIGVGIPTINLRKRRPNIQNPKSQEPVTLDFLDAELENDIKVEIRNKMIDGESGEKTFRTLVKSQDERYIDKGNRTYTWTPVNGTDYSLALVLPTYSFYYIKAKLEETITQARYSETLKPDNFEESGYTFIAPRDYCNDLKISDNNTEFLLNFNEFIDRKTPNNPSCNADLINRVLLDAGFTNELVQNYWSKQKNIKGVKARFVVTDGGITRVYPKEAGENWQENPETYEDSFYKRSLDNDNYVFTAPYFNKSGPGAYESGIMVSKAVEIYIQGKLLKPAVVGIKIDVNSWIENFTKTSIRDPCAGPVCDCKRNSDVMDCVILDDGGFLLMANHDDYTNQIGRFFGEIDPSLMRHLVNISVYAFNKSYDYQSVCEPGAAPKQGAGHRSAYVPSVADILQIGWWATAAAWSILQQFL
T1 sequence (P54289 947-1103 partner limits assumed): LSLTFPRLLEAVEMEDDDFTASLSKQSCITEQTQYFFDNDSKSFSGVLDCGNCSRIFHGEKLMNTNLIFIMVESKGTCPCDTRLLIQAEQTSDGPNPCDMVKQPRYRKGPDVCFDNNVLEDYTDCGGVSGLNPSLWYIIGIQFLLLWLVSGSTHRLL
Briefly: hCav2.2 assay, IonWorks planar array electrophysiology in stable HEK293 cell line. In kind it is cell-based. To be noted: inhibition by 50% of current elicited by the 1st depolarising pulse; HEK293 cells; read-out: tonic pIC50 (converted). Here is the method: Compounds as defined in the first or second aspect may be tested for in vitro biological activity in the hCav2.2 assay in accordance with the following studies:
Stable cell lines expressing the human Cav2.2 α (α1B) subunit, along with the human β3 and α2δ1 auxiliary subunits were created following sequential transfection and selection of human embryonic kidney (HEK293) cells. HEK293 cells were cultured in Dulbecco's modified Eagles media/F12 media (Invitrogen, Cat #041-95750V) containing 10% fetal bovine serum, with added L-glutamine (2 mM; Invitrogen, Cat #25030-024) and non-essential amino acids (5%; Invitrogen, Cat #11140-035). Initially HEK293 cells were transfected with two plasmid vectors for expression of the hCav2.2 α subunit (pCIN5-hCav2.2 which carries a neomycin resistance marker) and the hCav β3 subunit (pCIH-hCav β3 which carries a hygromycin resistance marker). Clonal cell lines were isolated following selection in media supplemented with 0.4 mg ml^−1 Geneticin G418 (Invitrogen, Cat #10131-027) and 0.1 mg ml^−1 hygromycin (Invitrogen, Cat #10687-010). These clonal cell lines were assessed for Cav2.2 α/β3-mediated current expression using the IonWorks planar array electrophysiology technology (described below). A clonal line was identified that gave a reasonable level of functional Cav2.2 α/β3 current expression. This cell line was transfected with a plasmid vector for expression of the human α2δ1 subunit (pCIP-α2δ1 which carries a puromycin resistance marker) and clonal cell lines isolated following selection in media containing 0.62 μg ml^−1 puromycin (Sigma, Cat #P-7255), in addition to 0.4 mg ml^−1 Geneticin G418 and 0.1 mg ml^−1 hygromycin. Several cell lines were identified that gave robust levels of Cav2.2 α/β3/α2δ1-mediated current expression and one of these was selected for compound profiling. Expression of all three subunits within this cell line was continuously maintained by the inclusion of G418 (0.4 mg ml^−1), hygromycin (0.1 mg ml^−1) and puromycin (0.62 μg ml^−1). Cells were maintained at 37° C. in a humidified environment containing 5% CO2 in air. Cells were liberated from the T175 culture flasks for passage and harvesting using TrpLE (Invitrogen, Cat #12604-013).
Cells were grown to 30-60% confluence in T175 flasks and maintained at 30° C. for 24 hrs prior to recording. Cells were lifted by removing the growth media, washing with Ca^2+ free PBS (Invitrogen, Cat #14190-094) and incubating with 3 ml of warmed (37° C.) TrpLE (Invitrogen, Cat #12604-013) for 6 minutes. Lifted cells were suspended in 10 ml of extracellular buffer. Cell suspension was then placed into a 15 ml tube and centrifuged for 2 minutes at 700 rpm. After centrifugation, the supernatant was removed and the cell pellet was resuspended in 4.5 ml of extracellular solution.
Currents were recorded at room temperature (21-23° C.) using the IonWorks planar array electrophysiology technology (Molecular Devices Corp.). Stimulation protocols and data acquisition were carried out using a microcomputer (Dell Pentium 4). In order to determine planar electrode hole resistances (Rp), a 10 mV, 160 ms potential difference was applied across each hole. These measurements were performed before cell addition. After cell addition a seal test was performed prior to antibiotic (amphotericin) circulation to achieve intracellular access. Leak subtraction was conducted in all experiments by applying a 160 ms hyperpolarizing (10 mV) prepulse 200 ms before the test pulses to measure leak conductance. Test pulses stepping from the holding potential (VH) of −90 mV to +10 mV were applied for 20 ms and repeated 10 times at a frequency of 10 Hz. In all experiments, the test pulse protocol was performed in the absence (pre-read) and presence (post-read) of a compound. Pre- and post-reads were separated by a compound addition followed by a 3-3.5 min incubation. […]
(In general: Patch clamp records ionic current or voltage across a cell membrane.)
Consider `C[C@@H]1CN(Cc2nnnn2-c2cccc(C(F)(F)F)c2)C[C@H](C)O1` [Compound 3, (cis)-2,6-Dimethyl-4-({1-[3-(trifluoromethyl)phenyl]-1H-tetrazol-5-yl}methyl)morpholine], for which the IC50 was at most 31.6 µM.

For `FC(F)(F)c1cc(-n2nnnc2CN2CCOCC2)ccc1Cl` [Compound 111, 4-({1-[4-chloro-3-(trifluoromethyl)phenyl]-1H-tetrazol-5-yl}methyl)morpholine], the IC50 was at most 3.16 µM.

With `CC(C)S(=O)(=O)N1CCN(Cc2nnnn2-c2ccc(C#N)c(C(F)(F)F)c2)CC1` [Compound 122, 4-[5-({4-[(1-methylethyl)sulfonyl]-1-piperazinyl}methyl)-1H-tetrazol-1-yl]-2-(trifluoromethyl)benzonitrile], the IC50 was at most 3.16 µM.

Consider `FC(F)(F)c1cc(-n2nnnc2CN2C[C@@H]3C[C@H]2CO3)ccc1Cl` [Compound 110, (1S,4S)-5-({1-[4-chloro-3-(trifluoromethyl)phenyl]-1H-tetrazol-5-yl}methyl)-2-oxa-5-azabicyclo[2.2.1]heptane hydrochloride], for which the IC50 is at most 10 µM.

As to `O=S1(=O)CCC2CN(Cc3nnnn3-c3cccc(C(F)(F)F)c3)CCN21` (stereo not drawn) [Compound 79, 5-({1-[3-(Trifluoromethyl)phenyl]-1H-tetrazol-5-yl}methyl)hexahydro-2H-isothiazolo[2,3-a]pyrazine 1,1-dioxide], the IC50 was at most 31.6 µM.

As for `CC(C)N1CCN(Cc2nnnn2-c2ccc(C(F)(F)F)cc2)[C@H](C)C1=O` [Compound 90, (3R)-3-Methyl-1-(1-methylethyl)-4-({1-[4-(trifluoromethyl)phenyl]-1H-tetrazol-5-yl}methyl)-2-piperazinone], the IC50 is at most 10 µM.

With `CN1C[C@@H]2C[C@H]1CN2Cc1nnnn1-c1ccc(C(F)(F)F)cc1` [Compound 98, (1S,4S)-2-Methyl-5-({1-[4-(trifluoromethyl)phenyl]-1H-tetrazol-5-yl}methyl)-2,5-diazabicyclo[2.2.1]heptane hydrochloride], the IC50 was at most 31.6 µM.

Take `N#Cc1ccc(-n2nnnc2CN2CCNCC2)cc1C(F)(F)F` [Compound 101, 4-[5-(1-piperazinylmethyl)-1H-tetrazol-1-yl]-2-(trifluoromethyl)benzonitrile]: the IC50 was at most 10 µM.

In the case of `CC(C)N1CCN(Cc2nnnn2-c2cccc(C(F)(F)F)c2)[C@H](C)C1` [Compound 94, (2R)-2-Methyl-4-(1-methylethyl)-1-({1-[3-(trifluoromethyl)phenyl]-1H-tetrazol-5-yl}methyl)piperazine hydrochloride], the IC50 was at most 31.6 µM.

With `CCS(=O)(=O)N1CCN(Cc2nnnn2-c2ccc(C#N)cc2)CC1` [Compound 118, 4-(5-{[4-(ethylsulfonyl)-1-piperazinyl]methyl}-1H-tetrazol-1-yl)benzonitrile], the IC50 was at most 31.6 µM.

Take `FC(F)(F)c1cccc(-n2nnnc2CNC2CCCCC2)c1` [Compound 65, N-({1-[3-(Trifluoromethyl)phenyl]-1H-tetrazol-5-yl}methyl)cyclohexanamine hydrochloride]: the IC50 was at most 31.6 µM.

Consider `CN1CCN(Cc2nnnn2-c2cccc(C(F)(F)F)c2)CC1(C)C` [Compound 45, 1,2,2-Trimethyl-4-({1-[3-(trifluoromethyl)phenyl]-1H-tetrazol-5-yl}methyl)piperazine hydrochloride], for which the IC50 is at most 31.6 µM.

For `Cc1c(-n2nnnc2CN2C[C@@H]3C[C@H]2CO3)ccc(C#N)c1C(F)(F)F` [Compound 129, 3-methyl-4-{5-[(1S,4S)-2-oxa-5-azabicyclo[2.2.1]hept-5-ylmethyl]-1H-tetrazol-1-yl}-2-(trifluoromethyl)bbenzonitrile hydrochloride], the IC50 is at most 31.6 µM.

Consider `CC(C)N1CCC2(CCN(Cc3nnnn3-c3ccc(C#N)c(C(F)(F)F)c3)CC2)C1` [Compound 147, 4-(5-{[2-(1-methylethyl)-2,8-diazaspiro[4.5]dec-8-yl]methyl}-1H-tetrazol-1-yl)-2-(trifluoromethyl)benzonitrile dihydrochloride], for which the IC50 was at most 3.16 µM.

Turning to `C[C@@H]1CN(Cc2nnnn2-c2ccc(Br)cc2Cl)C[C@H](C)O1` [Compound 57, cis-4-{[1-(4-Bromo-2-chlorophenyl)-1H-tetrazol-5-yl]methyl}-2,6-dimethylmorpholine hydrochloride], the IC50 was at most 31.6 µM.

Take `FC(F)(F)c1ccc(-n2nnnc2CN2CCN3CCCC3C2)cc1` (stereo not drawn) [Compound 70, 2-({1-[4-(Trifluoromethyl)phenyl]-1H-tetrazol-5-yl}methyl)octahydropyrrolo[1,2-a]pyrazine di-hydrochloride]: the IC50 was at most 31.6 µM.

As to `CCS(=O)(=O)N1CCN(Cc2nnnn2-c2ccc(C#N)c(C(F)(F)F)c2)CC1` [Compound 121, 4-(5-{[4-(ethylsulfonyl)-1-piperazinyl]methyl}-1H-tetrazol-1-yl)-2-(trifluoromethyl)benzonitrile], the IC50 is at most 3.16 µM.

With `CC1C(=O)N(C)CCN1Cc1nnnn1-c1cccc(C(F)(F)F)c1` (stereo not drawn) [Compound 33, 1,3-Dimethyl-4-({1-[3-(trifluoromethyl)phenyl]-1H-tetrazol-5-yl}methyl)-2-piperazinone], the IC50 is 63.1 µM.

For `C[C@@H]1COCCN1Cc1nnnn1-c1cccc(C(F)(F)F)c1` [Compound 25, (3R)-3-Methyl-4-({1-[3-(trifluoromethyl)phenyl]-1H-tetrazol-5-yl}methyl)morpholine hydrochloride], the IC50 was at most 3.16 µM.

In the case of `N#CC1CCN(Cc2nnnn2-c2cccc(C(F)(F)F)c2)C1` (stereo not drawn) [Compound 24, 1-({1-[3-(Trifluoromethyl)phenyl]-1H-tetrazol-5-yl}methyl)-3-pyrrolidinecarbonitrile hydrochloride], the IC50 was at most 31.6 µM.

Turning to `C[C@@H]1COCCN1Cc1nnnn1-c1ccc(C#N)c(C(F)(F)F)c1` [Compound 41, 4-(5-{[(3R)-3-Methyl-4-morpholinyl]methyl}-1H-tetrazol-1-yl)-2-(trifluoromethyl)benzonitrile], the IC50 is at most 3.16 µM.

With `N#Cc1ccc(-n2nnnc2CN2CCOCC2)cc1C(F)(F)F` [Compound 34, 4-[5-(4-Morpholinylmethyl)-1H-tetrazol-1-yl]-2-(trifluoromethyl)benzonitrile hydrochloride], the IC50 is at most 31.6 µM.

For the compound `CC(C)C(=O)N1CCN(Cc2nnnn2-c2ccc(C#N)c(C(F)(F)F)c2)CC1` [Compound 146, 4-(5-{[4-(2-methylpropanoyl)-1-piperazinyl]methyl}-1H-tetrazol-1-yl)-2-(trifluoromethyl)benzonitrile], the IC50 is at most 3.16 µM.

As for `CCS(=O)(=O)N1CCN(Cc2nnnn2-c2ccc(C(F)(F)F)cc2)CC1` [Compound 47, 1-(Ethylsulfonyl)-4-({1-[4-(trifluoromethyl)phenyl]-1H-tetrazol-5-yl}methyl)piperazine], the IC50 was at most 10 µM.

As to `CCCS(=O)(=O)N1CCN(Cc2nnnn2-c2ccc(C#N)c(C(F)(F)F)c2)CC1` [Compound 106, 4-(5-{[4-(Propylsulfonyl)-1-piperazinyl]methyl}-1H-tetrazol-1-yl)-2-(trifluoromethyl)benzonitrile], the IC50 is at most 3.16 µM.

As for `N#Cc1ccc(-n2nnnc2CN2CCC[C@@H]2C(F)(F)F)cc1` [Compound 73, 4-(5-{[(2R)-2-(Trifluoromethyl)-1-pyrrolidinyl]methyl}-1H-tetrazol-1-yl)benzonitrile], the IC50 is at most 31.6 µM.

For `FS(F)(F)(F)(F)c1ccc(-n2nnnc2CN2C[C@@H]3C[C@H]2CO3)cc1` [Compound 127, (1S,4S)-5-({1-[4-(pentafluoro-λ^6-sulfanyl)phenyl]-1H-tetrazol-5-yl}methyl)-2-oxa-5-azabicyclo[2.2.1]heptane], the IC50 was at most 31.6 µM.

The values above are taken from patent US9750719B2, “Tetrazole compounds as calcium channel blockers” (CONVERGENCE PHARMACEUTICALS LIMITED, priority 2010, dated 2017).
